# Experimental data: patent US10835542B2, “9-aminomethyl minocycline compounds and use thereof in treating community-acquired bacterial pneumonia (CABP)” (Paratek Pharmaceuticals, Inc., priority 2016, dated 2020)
# Like-named read-outs stand apart in the source and are kept apart here.
# Assays:
# Format in all cases: in vivo, human
# Staphylococcus aureus = conditions: PTE, microITT
# [1] = Intra-pulmonary (ELF, AC/AM by BAL) and plasma PK after multiple iv doses in healthy adult subjects; conditions: for Kp at 0.5 h / Kp at 1 h / Kp at 2 h / Kp at 4 h / Kp at 8 h / Kp at 12 h / Kp at 24 h / AUC / Kp: intravenous, 100 mg; for concentration at 0.5 h: 0.5 h after fifth 100 mg iv dose; for concentration at 1 h: 1 h after fifth 100 mg iv dose; for concentration at 2 h: 2 h after fifth 100 mg iv dose; for concentration at 4 h: 4 h after fifth 100 mg iv dose; for concentration at 8 h: 8 h after fifth 100 mg iv dose; for concentration at 12 h: 12 h after fifth 100 mg iv dose; for concentration at 24 h: 24 h after fifth 100 mg iv dose
# Experimental: Concomitant blood samples were taken to compare tissue with serum antibiotic concentrations. […]
# One standard bronchoscopy was performed for each subject. […] A blood sample was taken at the time of bronschoscopy for plasma urea measurement.
# During the bronchoscopy 4 aliquots of 50 mL each of sterile saline solution were instilled into the right lobe of the lungs, immediately aspirated, and placed on ice. The first bronchioalveolar lavage aliquot instilled (BALX) fraction was prepared and analyzed separately from subsequent instillations. The aspirate from the second through the fourth instillation, once pooled, represented the BAL fraction. An aliquot of BAL was removed and used to determine the cell count and differential cell composition including pulmonary macrophages. The remaining supernatant was centrifuged and the supernatant and cell pellet were immediately frozen pending analysis. An aliquot of the BAL supernatant was frozen separately for urea assay. The amount of test article detected in the cell pellet was normalized by the corresponding fraction of macrophages. Fraction BALX was analyzed in a similar manner, except the cell pellet was not assessed or assayed. A blood sample to determine urea concentration was obtained at the time of the second instillation (±3 minutes). The concentration of test article detected in the BALX and BAL fluid was normalized by the dilution factor with respect to urea levels detected in the BALX and BAL fractions respectively.
# All completed subjects with evaluable plasma PK parameter data were included in the PK data analysis.
# All the biofluid concentrations were expressed in ng/mL. All concentrations below the limit of quantification (BLQ) or missing data were labeled as such in the concentration data listings. Concentrations BLQ were treated as zero in summary statistics for concentration data only. They were not considered for calculation of PK Parameters (with the exception of the predose samples). PK parameters were determined using non-compartmental method(s) using WinNonlin Pro.
# These were obtained from the above plasma PK parameter calculations (AUC0-24 and AUC0-12). The tigecycline concentration information was serve as an internal validation for assay sensitivity purposes.
# The volume of the lung ELF within the BAL fluid was estimated by (ureaBAL/ureaplasma), where ureaBAL and ureaplasma represented the concentrations of urea in the BAL fluid and plasma, respectively.
# AUCELF and AUCAC were determined from pooled pulmonary concentration data and were summarized by treatment group. […] For the tigecycline cohort there were 5 ELF and AC concentrations for each of the 4 timepoints over the 12 hour dosing interval.
# For PK blood collection and processing, all blood samples were taken by either direct venipuncture or an indwelling cannula inserted in a forearm vein (on the arm contralateral to the infusion site) at the timepoints specified in the Study Flowchart. The PK blood sample collected at the bronchoscopy scheduled time was obtained at the time of the second BAL instillation (±3 minutes) from the arm contralateral to the infusion site.
# Blood samples were collected into labeled 4 mL tubes containing sodium heparin. Immediately after the sample was collected, the tube was gently inverted 5 to 8 times to thoroughly mix the anticoagulant and then placed upright in a cryoblock or test tube rack surrounded by ice until centrifugation. Samples were centrifuged at 1500×g (gravity) for 10 minutes at approximately 4° C. within 30 minutes of collection. The resultant plasma was divided into 2 equal aliquots, placed in individual cryovials, and immediately frozen at −70° C. or colder within 1 hour of collection. The tubes were kept frozen at −70° C. or colder pending shipment to the bioanalytical laboratory.
# [2] = Phase 1 multiple oral dose study: urine PK
# Experimental: Urine samples were only collected from a subset of subjects because analysis of urine PK was added by an amendment to the study protocol after the study was already underway.
# Additional parameters Ae0-4, Ae4-8, Ae8-12, Ae12-24, and Ae0-24 were also calculated.
# Escherichia coli = test: Clinical success at PTE by baseline pathogen, microITT; conditions: N1 = 6 (Compound 1), 7 (Moxifloxacin)
# [3] = human, ELF (epithelial lung fluid from BAL) relative to plasma, read-out: ELF to Plasma (Mean, SD)
# [4] = human, alveolar macrophages (AM), read-out: AM concentration (mean ± SD)
# [5] = human, epithelial lining fluid (ELF), read-out: ELF concentration (mean ± SD)
# [6] = human, read-out: AM to Plasma (Mean, SD)
# [7] = human, plasma, read-out: Plasma concentration at time of BAL (mean ± SD)
compound,measurement,setting,value
"CN(C)c1cc(CNCC(C)(C)C)c(O)c2c1C[C@H]1C[C@H]3[C@H](N(C)C)C(O)=C(C(N)=O)C(=O)[C@@]3(O)C(O)=C1C2=O [Compound 1, 9-[(2,2-dimethyl-propylamino)-methyl]-minocycline]",Clinical Success n (%),"Staphylococcus aureus; Staphylococcus aureus MRSA, N1 = 0 (Compound 1), 1 (Moxifloxacin)",0 n (%)
same,Clinical Success n (%),"Staphylococcus aureus; Staphylococcus aureus MSSA, N1 = 11 (Compound 1), 10 (Moxifloxacin)",8 (72.7) n (%)
same,Clinical Success n (%),"Staphylococcus aureus; baseline pathogen Staphylococcus aureus, N1 = 11 (Compound 1), 11 (Moxifloxacin)",8 (72.7) n (%)
same,mean concentration in ELF higher than that in plasma,"[1]; FIG. 1, concentration vs. time profile",at least 40%
same,"maximum concentration (plasma), mean ± SD",[1]; after the fifth 100 mg iv dose,2.26 ± 0.76 µg/mL
same,Kp at 0.5 h,[1]; [3],0.95 ± 0.56
same,Kp at 1 h,[1]; [3],2.72 ± 1.26
same,Kp at 2 h,[1]; [3],1.5 ± 0.61
same,Kp at 4 h,[1]; [3],1.79 ± 0.49
same,Kp at 8 h,[1]; [3],1.07 ± 0.45
same,Kp at 12 h,[1]; [3],1.44 ± 0.57
same,Kp at 24 h,[1]; [3],1.65 ± 0.86
same,AUC,"[1]; human, ELF (epithelial lung fluid from BAL), AUC0-24 based on mean concentration at each BAL sampling time, read-out: ELF AUCmean",17200 ng·h/mL
same,AUC,"[1]; human, ELF (epithelial lung fluid from BAL), AUC0-24 based on median concentration at each BAL sampling time, read-out: ELF AUCmedian",16700 ng·h/mL
same,Kp,"[1]; human, alveolar cells (AC) / plasma, based on AUC0-24 of mean concentrations, read-out: Ratio AC:Plasma (AUCmean)",25.8
same,Kp,"[1]; human, alveolar cells (AC) / plasma, based on AUC0-24 of median concentrations, read-out: Ratio AC:Plasma (AUCmedian)",24.8
same,AUC,"[1]; human, alveolar cells (AC, BAL cell pellet), AUC0-24 based on mean concentration at each BAL sampling time, read-out: AC AUCmean",302000 ng·h/mL
same,AUC,"[1]; human, alveolar cells (AC, BAL cell pellet), AUC0-24 based on median concentration at each BAL sampling time, read-out: AC AUCmedian",292000 ng·h/mL
same,Kp,"[1]; human, alveolar cells (AC, mostly AM) / plasma, FIG. 1, concentration vs. time profile, read-out: mean concentration in AC (mostly AM) higher than that in plasma",~25
same,concentration at 0.5 h,[1]; [4],14300 ± 9300 ng/mL
same,concentration at 1 h,[1]; [4],12800 ± 8480 ng/mL
same,concentration at 2 h,[1]; [4],10800 ± 7590 ng/mL
same,concentration at 4 h,[1]; [4],18000 ± 7170 ng/mL
same,concentration at 8 h,[1]; [4],12300 ± 4700 ng/mL
same,concentration at 12 h,[1]; [4],12300 ± 4610 ng/mL
same,concentration at 24 h,[1]; [4],10400 ± 4040 ng/mL
same,Kp,"[1]; human, epithelial lining fluid (ELF) / plasma, penetration ratio based on AUC0-24 of mean concentrations, read-out: Ratio ELF:Plasma (AUCmean)",1.47
same,Kp,"[1]; human, epithelial lining fluid (ELF) / plasma, penetration ratio based on AUC0-24 of median concentrations, read-out: Ratio ELF:Plasma (AUCmedian)",1.42
same,concentration at 0.5 h,[1]; [5],1730 ± 1010 ng/mL
same,concentration at 1 h,[1]; [5],2250 ± 720 ng/mL
same,concentration at 2 h,[1]; [5],1510 ± 940 ng/mL
same,concentration at 4 h,[1]; [5],950 ± 330 ng/mL
same,concentration at 8 h,[1]; [5],580 ± 190 ng/mL
same,concentration at 12 h,[1]; [5],610 ± 290 ng/mL
same,concentration at 24 h,[1]; [5],410 ± 130 ng/mL
same,Kp at 0.5 h,[1]; [6],8.12 ± 5.95
same,Kp at 1 h,[1]; [6],13.8 ± 7.38
same,Kp at 2 h,[1]; [6],12.3 ± 6.57
same,Kp at 4 h,[1]; [6],34.7 ± 15.1
same,Kp at 8 h,[1]; [6],23.1 ± 11.2
same,Kp at 12 h,[1]; [6],29 ± 8.78
same,Kp at 24 h,[1]; [6],40.3 ± 10.3
same,AUC,"[1]; human, plasma, AUC0-24 based on mean concentration at each BAL sampling time, read-out: Plasma AUCmean",11700 ng·h/mL
same,AUC,"[1]; human, plasma, AUC0-24 based on median concentration at each BAL sampling time, read-out: Plasma AUCmedian",11800 ng·h/mL
same,concentration at 0.5 h,[1]; [7],1800 ± 130 ng/mL
same,concentration at 1 h,[1]; [7],890 ± 190 ng/mL
same,concentration at 2 h,[1]; [7],930 ± 330 ng/mL
same,concentration at 4 h,[1]; [7],590 ± 150 ng/mL
same,concentration at 8 h,[1]; [7],560 ± 120 ng/mL
same,concentration at 12 h,[1]; [7],420 ± 70 ng/mL
same,concentration at 24 h,[1]; [7],270 ± 50 ng/mL
same,Vd,"[1]; human, plasma, after the fifth 100 mg iv dose, read-out: volume of distribution, mean ± SD",165 ± 58 L
same,"Ae0-24, Mean (CV)","[2]; 300 mg, Day 1 (n = 2)",20.37 (8.3) mg
same,"Fe0-24, Mean (CV)","[2]; 300 mg, Day 1 (n = 2)",6.79 (8.3) %
same,"Ae0-24, Mean (CV)","[2]; 300 mg, Day 5 (n = 3)",26.14 (14.6) mg
same,"Fe0-24, Mean (CV)","[2]; 300 mg, Day 5 (n = 3)",8.71 (14.6) %
same,"Ae0-24, Mean (CV)","[2]; 450 mg, Day 5 (n = 5)",30.81 (33.0) mg
same,"Fe0-24, Mean (CV)","[2]; 450 mg, Day 5 (n = 5)",6.85 (33.0) %
same,"Ae0-24, Mean (CV)","[2]; 600 mg, Day 1 (n = 1)",31.96 mg
same,"Fe0-24, Mean (CV)","[2]; 600 mg, Day 1 (n = 1)",5.33%
same,"Ae0-24, Mean (CV)","[2]; 600 mg, Day 5 (n = 4)",51.82 (14.8) mg
same,"Fe0-24, Mean (CV)","[2]; 600 mg, Day 5 (n = 4)",8.64 (14.8) %
same,Clinical Success n (%),Escherichia coli,4 (66.7) n (%)
